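Five concentrations, 48 hours, 96-well plates. GI50: concentration for 50% inhibition of growth. The concentration for full growth arrest is given as TGI.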
Legend:
Assay in all cases: NCI tumour cell line growth inhibition, 48 h
HOP-92 NSCLC = tested on: HOP-92 NSCLC
RPMI-8226 leukemia = tested on: RPMI-8226 leukemia
OVCAR-8 ovarian = tested on: OVCAR-8 ovarian
SK-MEL-5 melanoma = tested on: SK-MEL-5 melanoma
COLO 205 colon = tested on: COLO 205 colon
CAKI-1 renal = tested on: CAKI-1 renal
SW-620 colon = tested on: SW-620 colon
HCT-116 colon = tested on: HCT-116 colon
OVCAR-3 ovarian = tested on: OVCAR-3 ovarian
U251 CNS = tested on: U251 CNS

Row | Structure (SMILES) | GI50 (HOP-92 NSCLC) [µM] | TGI (HOP-92 NSCLC) [µM] | GI50 (RPMI-8226 leukemia) [µM] | TGI (RPMI-8226 leukemia) [µM] | GI50 (OVCAR-8 ovarian) [µM] | TGI (OVCAR-8 ovarian) [µM] | GI50 (SK-MEL-5 melanoma) [µM] | TGI (SK-MEL-5 melanoma) [µM] | GI50 (COLO 205 colon) [µM] | TGI (COLO 205 colon) [µM] | GI50 (CAKI-1 renal) [µM] | TGI (CAKI-1 renal) [µM] | GI50 (SW-620 colon) [µM] | TGI (SW-620 colon) [µM] | GI50 (HCT-116 colon) [µM] | TGI (HCT-116 colon) [µM] | GI50 (OVCAR-3 ovarian) [µM] | TGI (OVCAR-3 ovarian) [µM] | GI50 (U251 CNS) [µM] | TGI (U251 CNS) [µM]
1 | CCc1c[nH]c2ncnc(N3CC[C@@](N)(CNC(=O)c4ccc(F)cc4F)C3)c12 | 20.9 | > 100 | 28.6 | > 100 | 48.1 | > 100 | 32.8 | > 100 | 29.8 | > 100 | 18.7 | > 89.8 | 31.3 | > 100 | 25 | > 100 | 69.1 | > 100 | 46.4 | > 100
2 | COc1cc2cc(Oc3ccc(NC(=O)c4ccc(Cl)c(C(F)(F)F)c4)cc3)c(C)nc2cc1OC | 13.6 | 71.3 | 5.43 | 32.7 | 22.9 | > 100 | 10.6 | 27.1 | 11.2 | 24 | 4.19 | 46.2 | 33.7 | > 100 | 4.18 | 88.9 | 7.94 | 54 | 8.72 | > 100
3 | Cc1ncc([N+](=O)[O-])n1CCNC(=O)CCCn1cnc([N+](=O)[O-])n1 |  | > 100 |  | > 100 |  | > 100 |  | > 100 |  | > 100 |  | > 100 |  | > 100 |  | > 100 |  | > 100 |  | > 100
4 | COc1ccccc1-c1c(C)nn2c(NCc3ccccn3)cc(C)nc12 | 15.9 | > 50 | 13.6 | > 50 | 23.9 | > 50 | 14.8 | 49.6 | 1.92 | > 50 | 12.4 | > 50 | 14.9 | > 50 | 3.75 | > 50 | 2.58 | > 50 | > 41.9 | > 50
5 | C/C1=C\CC[C@@](C)(O)[C@@H]2CC3[C@@H](OC(=O)C34CC4)[C@@H](O2)[C@H](C)CCC1 (stereo partly specified) | 38.9 | > 100 | 30.1 | > 100 | 18.8 | 38.1 | 10.6 | 30.7 | 24.2 | 63.6 | 18 | 34.4 | 35.2 | > 100 | 16.5 | 30.1 | 20.1 | 39.6 | 19.9 | 42.7
6 | Cn1cc(-c2ccc3c(c2)CCN3C(=O)Cc2cccc(C(F)(F)F)c2)c2c(N)ncnc21 | 1.7 | 9.2 | 3.84 | 27.7 | 4.47 | 40.5 |  |  | 4.23 | 17.9 | 1.52 | 40.3 | 4.89 | 20.8 | 4.64 | 18.1 | 7.1 | 21.9 | 2.69 | 17.7
7 | COc1cc(/C=C(/c2ccccc2)[N+](=O)[O-])c(OC)c2c1OCO2 | 1.48 | 3.2 | 0.459 | 4.1 | 2.12 | 6.74 | 1.75 | 3.14 | 1.98 | 4.25 | 1.76 | 3.95 | 1.52 | 3.56 | 1.3 | 3 | 1.32 | 2.63 | 1.52 | 3.05
8 | CCN1C(=O)N(CC)C2C1NN=c1s/c(=C3\C(=O)N(C)c4ccccc43)c(=O)n12 (stereo unspecified) | 0.685 | > 100 | 0.89 | 12.6 | 2.82 | > 100 | 0.837 | > 89.2 | 1.08 | 55.1 | 0.448 | 97.4 | 0.58 | > 100 | 1.1 | > 43.6 | 0.382 | 8.18 | 1.97 | > 68.9
9 | O=C(Nc1ccc2c(c1)oc(=O)c1ccccc12)C(Cl)Cl |  | > 100 |  | 32.5 |  | > 100 |  | > 100 |  | > 100 |  | > 100 |  | > 100 |  | > 100 |  | 73.8 |  | > 100
10 | O=C(O)c1c[nH]cc1C(=O)O |  | > 100 |  | > 100 |  | > 100 |  | > 100 |  | > 100 |  | > 100 |  | > 100 |  | > 100 |  | > 100 |  | > 100
11 | CC(=O)OC1C2(CC3N4C(=O)C5(CO)SSC4(CC31O)C(=O)N5C)OC(C)C(C)(C)C2=O (stereo unspecified) | 0.0763 | 0.214 | < 0.0398 |  | < 0.0495 | 0.222 | 0.0389 | 0.0947 |  |  | 1.88 | 3.86 | < 0.01 | 0.0136 | 0.0696 | 0.212 | 1.32 | 3.01 | < 0.01 | 
12 | C=C[C@]1(C)C=C2C(=O)[C@@]3(O)OC[C@@]4(CCCC(C)(C)C43O)C2(O)C(O)C1 (stereo partly specified) | 5.13 | 18.5 | 21 | > 100 | 4.03 | 15 | 14.5 | 27.8 | 1.54 | 3.08 | 2.38 | 7.71 | 0.827 | 2.31 | 1.18 | 2.46 | 2.52 | 5.9 | 13.6 | 28.1
13 | CN(C)CCNC(=O)c1ccc(Cl)c2c(Nc3ccc(S(N)(=O)=O)cc3)c3ccccc3nc12 |  | 8.54 |  | 29.1 |  | 6.84 |  | 11.8 |  | 2.15 |  | 17.1 |  | 2.52 |  | 1.71 |  |  |  | 14.1
14 | N/N=C(\Cc1ccccc1)NN=C(N)N |  | > 100 |  | > 100 |  | > 100 |  | > 100 |  | > 100 |  | > 100 |  | > 100 |  | > 100 |  |  |  | > 100
15 | O=C1C(=O)N(C2C3CC4CC(C3)CC2C4)C(=O)C(=O)C1c1nc2ccccc2o1 (stereo unspecified) |  | > 100 |  | > 100 |  | > 100 |  |  |  | > 100 |  | > 100 |  | > 100 |  | > 100 |  | 54 |  | > 100
